# Like-named read-outs stand apart in the source and are kept apart here.
# Key:
# [1] = test system: breast (MCF-7) and colon (LS-174T) cancer cell lines; assay: Growth inhibition of breast and colon cancer cells (Table 1); format: cell-based, human; settings: for inhibition at 50 µM: Homo sapiens
# Experimental: The compounds of the present invention were added using 100X concentrated stock solutions. At desired times, cell counts in duplicate were performed on a Coulter counter after harvesting the cells with gentle trypsinization. […] Cell counts were performed on each of three or more separate experiments, and the average values are expressed as percent growth inhibition as compared with untreated control cells. | ^a The values of percentage growth inhibition were determined from th | doseresponse curve experiments. Each value represents an average value an | range (in parentheses) obtained from three or more separate experiments. | The cell counts in duplicate were performed at day 3 and day 4 after two | treatments (day 0 and day 2) with analogs (seeding on day -1).
# [2] = test system: HL-60 human leukemia cells; assay: Growth inhibition of HL-60 leukemia cells (Example 3, Table 16); format: cell-based
# Experimental: HL-60 leukemic cells were obtained from the American Type Culture Collection (Rockville, Md.) and were grown in suspension culture in RPMI 1640 supplemented with 10% heat-inactivated fetal bovine serum, streptomycin (500 μg/ml), penicillin (50 units/ml), and glutamine (1 mM) (Gibco, Grand Island, N.Y.).
# Cell counts were performed at desired times on a Coulter Counter.
# The IC50 values were determined from the dose-
# represent an average value obtained for each analogue
# from two or more separate experiments carried out from 3
# days or 6 days. Initial cell number, 1 × 10^5 /dish.
# Typical numbers of untreated control cells at day 3 and
# viability in treated and control cells.
# [3] = molecular target: T1, RI, regulatory subunit of cAMP-dependent protein kinase type I (Oryctolagus cuniculus, UniProt G1TDN4); assay: Binding affinity for RI (Table 14); settings: vs cyclophosphate
# T1 construct: from tissue
# Experimental: (§1) RI and RII are the regulatory subunits of cAMP-dependent protein
# (§2) kinase type I and type II, respectively. Site A (Site 2) and Site B
# (§3) (RI and RII): the affinities of analogues for Site A and Site B were
# (§4) determined by the measurement of kinetic constants (inhibition constant,
# (§5) Ki), and the values are expressed as the relative affinity Ki
# (§6) (analogue), i.e., the ratio between the apparent inhibition constant for
# (§7) cAMP and the analogue, as described in Ogreid et al., Eur. J. Biochem.
# [4] = test system: LS-174T human colon carcinoma cells; assay: Growth inhibition of LS-174T cells (Example 4, Table 18); format: cell-based; settings: for inhibition at 10 µM / inhibition at 50 µM: Homo sapiens, LS174T; for growth inhibitory potency: LS-174T
# Experimental: LS-174T human colon carcinoma cells were obtained from the National Cancer Institute, Division of Cancer Treatment, Bethesda, Md., and were grown in Eagle's minimum essential medium supplemented with 10% heat-inactivated fetal bovine serum, Eagle's minimum essential medium nonessential amino acids, 20 mM 4-(2-hydroxyethyl)-1-piperazineethanesulfonic acid, 2mM glutamine, and penicillin-streptomycin (Gibco). The medium was changed every 48 hours.
# LS-174T cells were seeded at a density of 2×10^5 / 60 mm dish. […] At desired times, cell counts were performed in duplicate on a Coulter Counter after harvesting cells with gentle trypsinization.
# The percentage growth inhibition values shown at 10
# and 50 μM analogue concentrations were determined from
# the dose-response curve experiments like those shown in
# FIG. 1 and represent an average value obtained for each
# analogue from two or more separate experiments. Sp-6-SET-
# [5] = molecular target: T2, RII, regulatory subunit of cAMP-dependent protein kinase type II (Bos taurus, UniProt P00515); settings: literature, cited from earlier work; for relative affinity Ki (cAMP)/Ki (analogue), RII Site A: Site A (Site 2); for relative affinity Ki (cAMP)/Ki (analogue), RII Site B: Site B (Site 1)
# T2 construct: from tissue
# [6] = molecular target: T2, RII, regulatory subunit of cAMP-dependent protein kinase type II; assay: Binding affinity for RII (Table 14); settings: vs cyclophosphate
# Experimental: as §1, §2, §3, §4, §5, §6, §7
# [7] = molecular target: T1, RI, regulatory subunit of cAMP-dependent protein kinase type I; settings: literature, cited from earlier work; for relative affinity Ki (cAMP)/Ki (analogue), RI Site A: Site A (Site 2); for relative affinity Ki (cAMP)/Ki (analogue), RI Site B: Site B (Site 1)
# [8] = test system: LS-174T human colon carcinoma cells; assay: Additive growth inhibition with 8-Cl-cAMP (Table 19); format: cell-based
# Experimental: The medium was changed every 48 hours.
# At desired times, cell counts were performed in duplicate on a Coulter Counter after harvesting cells with gentle trypsinization.
# The analogues were added at 24
# HL-60 = assay: Growth inhibition of leukemic cells (Table 12); format: cell-based; settings: Homo sapiens
# Molt-4 = assay: Growth inhibition of leukemic cells (Table 12); format: cell-based, human; settings: Homo sapiens, MOLT-4; read-out: Inhibition of Growth IC50, Molt-4
# [9] = test system: four leukemic cell lines (HL-60, K-562, myc-K562, Molt-4); assay: Growth inhibition of leukemic cell lines; format: cell-based, human; settings: leukemic cell lines
# K-562 = assay: Growth inhibition of leukemic cells (Table 12); format: cell-based; settings: Homo sapiens, K562
# myc-K562 = assay: Growth inhibition of leukemic cells (Table 12); format: cell-based; settings: Homo sapiens
# [10] = 72 h, 50 μM, day 3, average (range), read-out: % Growth Inhibition, Day 3
# [11] = 96 h, 50 μM, day 4, average (range), read-out: % Growth Inhibition, Day 4
# [12] = 50 micromolar, read-out: growth inhibition
# [13] = Homo sapiens, HL-60, read-out: growth inhibition
# T1 sequence (G1TDN4 1-381): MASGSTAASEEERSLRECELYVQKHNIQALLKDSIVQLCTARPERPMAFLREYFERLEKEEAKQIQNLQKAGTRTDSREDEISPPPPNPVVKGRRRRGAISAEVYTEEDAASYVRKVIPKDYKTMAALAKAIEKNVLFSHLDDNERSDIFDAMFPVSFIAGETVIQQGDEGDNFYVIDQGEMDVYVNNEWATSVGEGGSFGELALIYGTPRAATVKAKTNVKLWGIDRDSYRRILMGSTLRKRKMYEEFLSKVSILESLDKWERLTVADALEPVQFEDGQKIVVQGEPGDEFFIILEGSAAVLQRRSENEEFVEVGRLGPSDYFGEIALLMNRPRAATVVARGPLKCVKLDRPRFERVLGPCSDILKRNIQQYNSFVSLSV
# T2 sequence (P00515 whole entry): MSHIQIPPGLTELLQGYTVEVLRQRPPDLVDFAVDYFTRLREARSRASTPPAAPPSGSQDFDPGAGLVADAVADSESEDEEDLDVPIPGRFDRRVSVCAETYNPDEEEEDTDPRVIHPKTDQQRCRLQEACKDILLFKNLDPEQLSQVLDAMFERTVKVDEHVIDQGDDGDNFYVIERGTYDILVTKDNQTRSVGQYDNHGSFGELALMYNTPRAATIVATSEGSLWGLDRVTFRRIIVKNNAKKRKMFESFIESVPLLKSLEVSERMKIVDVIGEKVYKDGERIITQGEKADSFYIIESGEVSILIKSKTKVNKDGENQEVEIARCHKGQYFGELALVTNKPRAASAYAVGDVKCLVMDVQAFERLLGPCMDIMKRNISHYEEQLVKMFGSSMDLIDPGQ
compound,measurement,setting,value
CCOC(=O)Nc1ncnc2c1ncn2[C@@H]1O[C@@H]2COP(=O)(O)O[C@H]2[C@H]1O [N^6 -ethoxycarbonyl-cAMP],inhibition at 50 µM,[1]; [10],32%
same,inhibition at 50 µM,[1]; [11],40%
same,inhibition at 50 µM,[1]; [12],30 to 70%
O=P1(O)OC[C@H]2O[C@@H](n3c(Sc4ccc(Cl)cc4)nc4c(Nc5ccccc5)ncnc43)[C@H](O)[C@@H]2O1 [N^6-phenyl-8-p-chlorophenylthio-cAMP],growth inhibition,[1]; 50 micromolar,"most potent growth inhibition among the C-6,-8 disubstituted analogues"
same,inhibition at 50 µM,[1]; [10],60%
same,inhibition at 50 µM,[1]; [11],47%
Nc1ncnc2c1nc(Br)n2[C@@H]1O[C@@H]2CO[P@](O)(=S)O[C@H]2[C@H]1O [Sp-8-Br-cAMPS],IC50,"[2]; Homo sapiens, HL-60, 72 h, read-out: Growth inhibition (IC50), Day 3",28 µM
same,IC50,"[2]; Homo sapiens, HL-60, 144 h, read-out: Growth inhibition (IC50), Day 6",3 µM
same,inhibition at 20 µM,[2]; [13],47%
same,fold more potent than 8-Br-cAMP,"[2]; IC50, day 6",6 fold
same,decrease in affinity for Site A of RI vs corresponding cyclophosphate,[3],7 fold
same,decrease in affinity for Site B of RI vs corresponding cyclophosphate,[3],19 fold
same,inhibition at 10 µM,[4],40%
same,inhibition at 50 µM,[4],60%
same,growth inhibitory potency,[4],greatest inhibition of cell growth
same,"relative affinity Ki (cAMP)/Ki (analogue), RII Site A",[5],0.003
same,"relative affinity Ki (cAMP)/Ki (analogue), RII Site B",[5],2.2
same,decrease in affinity for Site A of RII vs corresponding cyclophosphate,[6],37 fold
same,decrease in affinity for Site B of RII vs corresponding cyclophosphate,[6],3.1 fold
same,"relative affinity Ki (cAMP)/Ki (analogue), RI Site A",[7],0.19
same,"relative affinity Ki (cAMP)/Ki (analogue), RI Site B",[7],0.054
Nc1ncnc2c1ncn2[C@@H]1O[C@@H]2CO[P@](O)(=S)O[C@H]2[C@H]1O [Sp-cAMPS],inhibition at 20 µM,[2]; [13],< 5%
same,inhibition at 10 µM,[4],7%
same,inhibition at 50 µM,[4],15%
same,growth inhibitory potency,[4],least potency
"CCN(CC)c1ncnc2c1nc(Sc1ccc(Cl)cc1)n2[C@@H]1O[C@@H]2COP(=O)(O)O[C@H]2[C@H]1O [N^6,N ^6-diethyl-8-p-chlorophenylthio-cAMP]",inhibition at 50 µM,[1]; [10],43%
same,inhibition at 50 µM,[1]; [11],45%
"CCSc1ncnc2c1ncn2[C@@H]1O[C@@H]2CO[P@](O)(=S)O[C@H]2[C@H]1O [Sp-6-SET-cPMPS, Sp-6-ethylthiopurine-3':5'-monophosphorothioate]",inhibition at 10 µM,[4],25%
same,inhibition at 50 µM,[4],50%
same,growth inhibitory potency,[4],moderate potency
CCCCNc1ncnc2c1nc(Sc1ccc(Cl)cc1)n2[C@@H]1O[C@@H]2COP(=O)(O)O[C@H]2[C@H]1O [N^6-n-butyl-8-p-chlorophenylthio-cAMP],inhibition at 50 µM,[1]; [10],15%
same,inhibition at 50 µM,[1]; [11],22%
Nc1ncnc2c1ncn2[C@@H]1O[C@@H]2CO[P@@](O)(=S)O[C@H]2[C@H]1O [Rp-cAMPS],inhibition at 20 µM,[2]; [13],< 5%
same,inhibition at 10 µM,[4],15%
same,inhibition at 50 µM,[4],35%
same,growth inhibitory potency,[4],moderate potency
same,inhibition at 50 µM,"[8]; Homo sapiens, LS174T, 96 h, 50 μM, 4 days",35%
same,effect on growth-inhibitory effect of 8-Cl-cAMP,[8]; with 8-Cl-cAMP,additive effect
"Nc1ncnc2c1nc(Br)n2[C@@H]1O[C@@H]2COP(=O)(O)O[C@H]2[C@H]1O [8-Br-cAMP, 8-bromo-adenosine 3': 5'-monophosphate]",IC50,"[2]; Homo sapiens, HL-60, 72 h; read-out: Growth inhibition (IC50), Day 3",100 µM
same,IC50,"[2]; Homo sapiens, HL-60, 144 h; read-out: Growth inhibition (IC50), Day 6",18 µM
same,inhibition at 20 µM,"[2]; Homo sapiens, HL-60; 20 μM; read-out: growth inhibition",< 5%
same,"relative affinity Ki (cAMP)/Ki (analogue), RII Site A",[5],0.11
same,"relative affinity Ki (cAMP)/Ki (analogue), RII Site B",[5],6.8
same,IC50,HL-60,50 µM
same,IC50,Molt-4,100 µM
same,times less potent than 8-Cl-cAMP,[9],5-20 times
same,IC50,K-562,100 µM
same,IC50,myc-K562,100 µM
same,inhibition at 50 µM,[1]; [10],41%
same,inhibition at 50 µM,[1]; [11],40%
same,inhibition at 50 µM,[1]; [12],40 to 75%
same,"relative affinity Ki (cAMP)/Ki (analogue), RI Site A",[7],1.30
same,"relative affinity Ki (cAMP)/Ki (analogue), RI Site B",[7],1.0

# Reference: patent US5843916A, “Cyclic amp analogues, individually and in pairs, to inhibit neoplastic cell growth” (priority 1994, dated 1998)
